Test systems include CCRF-CEM leukemia; HOP-92 NSCLC; RPMI-8226 leukemia; UACC-62 melanoma; U251 CNS; OVCAR-8 ovarian; DMS 273 small cell lung; HT29 colon; MALME-3M melanoma; MDA-N.
Test in all cases: NCI anticancer screen, dose series, 48 h

Each structure is given as a SMILES string. Where “and” joins values, the source holds several entries; their conditions need not be identical. Equal entries are not always repeated.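 How tested: cells in 96-well plates exposed to compound for 48 hours at five concentrations. GI50 is the concentration that inhibits growth by half. The concentration for full growth arrest is given as TGI.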

`CC(C)(C)C1CCC(CI)(N=[N+]=[N-])CC1` (stereo not given): the TGI in the assay with CCRF-CEM leukemia, with HOP-92 NSCLC, with RPMI-8226 leukemia, with UACC-62 melanoma, with U251 CNS and with OVCAR-8 ovarian was over 100 µM throughout. The TGI in the assay with DMS 273 small cell lung, in the assay on HT29 colon and in the assay on MALME-3M melanoma was over 100 µM in each case.

On to `S=C(Nc1ccc(Cl)cc1)SC1CCCCC1`, for which the TGI in the assay on CCRF-CEM leukemia is over 100 µM; in the assay with HOP-92 NSCLC, 71.2 µM; in the assay on MDA-N, 47 µM; in the assay on RPMI-8226 leukemia, over 100 µM; in the assay with UACC-62 melanoma, 28.8 µM; with U251 CNS, over 100 µM. Besides, the TGI with OVCAR-8 ovarian is over 100 µM; in the assay with HT29 colon, 50.9 µM; in the assay with MALME-3M melanoma, 85.9 µM.

On to `O=C1C=CC(=O)c2c1cc1ccccc1c2O`, for which the TGI in the assay with CCRF-CEM leukemia is 5.91 µM; in the assay on HOP-92 NSCLC, 3.61 µM; in the assay on MDA-N, 18.5 µM; in the assay on RPMI-8226 leukemia it was over 26 µM; in the assay with UACC-62 melanoma, 20 µM; with U251 CNS it was 27.1 µM. Further, the TGI was found to be 8.96 µM in the assay on OVCAR-8 ovarian, 29.5 µM with DMS 273 small cell lung, 24 µM in the assay on HT29 colon and 17.2 µM in the assay on MALME-3M melanoma.

`COc1cccc(C(C#N)NC23CC4CC(CC(C4)C2)C3)c1` (stereo not given): the TGI in the assay with CCRF-CEM leukemia, with HOP-92 NSCLC, in the assay with MDA-N, with RPMI-8226 leukemia, in the assay on UACC-62 melanoma and in the assay on U251 CNS was over 100 µM in each case. Also, the TGI in the assay with OVCAR-8 ovarian, in the assay on HT29 colon and in the assay with MALME-3M melanoma was over 100 µM in each case.

As for `[CH3][Sn]([CH3])([CH3])[O]C(=O)C(O)c1ccccc1` (stereo not given), the GI50 was 4.84 µM in the assay on CCRF-CEM leukemia; 2.91 µM with HOP-92 NSCLC; 3.62 µM in the assay with MDA-N; 3.38 µM in the assay on RPMI-8226 leukemia; 2.11 µM with UACC-62 melanoma; 5.84 µM in the assay on U251 CNS. In addition, the GI50 in the assay on OVCAR-8 ovarian is 4.65 µM; in the assay with DMS 273 small cell lung, 3.01 µM; with HT29 colon, 3.45 µM; in the assay with MALME-3M melanoma it was 5.6 µM. For the same molecule, the TGI in the assay on CCRF-CEM leukemia was over 73.5 µM; in the assay on HOP-92 NSCLC it was 14.4 µM; in the assay with MDA-N, 15.9 µM; in the assay with RPMI-8226 leukemia, over 44.2 µM; in the assay with UACC-62 melanoma, 4.49 µM; in the assay with U251 CNS, over 95.3 µM. Moreover, the TGI in the assay on OVCAR-8 ovarian was over 54.9 µM; in the assay with DMS 273 small cell lung it was 14 µM; with HT29 colon it was 31.6 µM; with MALME-3M melanoma it was 24.8 µM.

Regarding `CC[C@@]1(O)C(=O)OCc2c1cc1n(c2=O)Cc2cc3c(Cl)c4c(cc3nc2-1)OCO4`, the GI50 is under 0.001 µM in the assay on CCRF-CEM leukemia; under 0.001 µM in the assay with HOP-92 NSCLC; under 0.001 µM with UACC-62 melanoma; under 0.001 µM in the assay on U251 CNS; under 0.001 µM in the assay with OVCAR-8 ovarian; 0.087 µM in the assay on MALME-3M melanoma. The TGI in the assay with CCRF-CEM leukemia is over 100 µM; in the assay on HOP-92 NSCLC, 0.0801 µM; in the assay on MDA-N, over 100 µM; with RPMI-8226 leukemia it was 4.38 µM; in the assay on UACC-62 melanoma, 0.337 µM and 0.544 µM; in the assay on HT29 colon it was 7.85 µM. The same molecule registered a TGI in the assay on MALME-3M melanoma of 31.4 µM.

For the molecule `CC1(C)C(=O)CCC(=O)C(C)(C)C2=CC=C(O2)C(C)(C)C(=O)CCC(=O)C(C)(C)C2=CC=C1O2`, the TGI in the assay with CCRF-CEM leukemia, in the assay on HOP-92 NSCLC, with U251 CNS, in the assay on OVCAR-8 ovarian, in the assay on DMS 273 small cell lung and in the assay on HT29 colon was over 100 µM throughout. This molecule also displayed a TGI with MALME-3M melanoma of over 100 µM.

With `CC(N)CN.CC(N)CN.[Cl-].[O]=[Os+2]=[O]` (stereo not given), the GI50 in the assay on RPMI-8226 leukemia was 40.3 µM; in the assay with UACC-62 melanoma it was over 100 µM; in the assay with U251 CNS it was over 100 µM; in the assay on OVCAR-8 ovarian it was 96.2 µM; in the assay with DMS 273 small cell lung, 43.1 µM; in the assay with MALME-3M melanoma, over 100 µM. For the same molecule, the TGI in the assay with RPMI-8226 leukemia, in the assay on UACC-62 melanoma, in the assay on U251 CNS, in the assay on OVCAR-8 ovarian, with DMS 273 small cell lung and in the assay on MALME-3M melanoma was over 100 µM each time.

For `COc1ccc(/C=c2\sc3nnc(CCC(=O)Nc4cccc(C(F)(F)F)c4)n3c2=O)cc1`, the TGI in the assay on CCRF-CEM leukemia was 90.3 µM; with HOP-92 NSCLC, over 100 µM; in the assay with RPMI-8226 leukemia, over 95.5 µM; in the assay on UACC-62 melanoma, over 100 µM; with U251 CNS, over 100 µM; with OVCAR-8 ovarian, over 100 µM. The TGI in the assay on DMS 273 small cell lung, in the assay on HT29 colon and in the assay on MALME-3M melanoma was over 100 µM each time.

Regarding `COC(=O)CSc1n[nH]c(-c2ccccc2)n1`, the TGI with CCRF-CEM leukemia, with HOP-92 NSCLC, in the assay with RPMI-8226 leukemia, in the assay on UACC-62 melanoma, in the assay with U251 CNS and in the assay with OVCAR-8 ovarian was over 100 µM each time. Moreover, the TGI in the assay on DMS 273 small cell lung, in the assay with HT29 colon and with MALME-3M melanoma was over 100 µM in each case.

As for `CN(C)CCCNC(=O)c1cccc2nc3ccccc3nc12`, the TGI with HOP-92 NSCLC is over 78.4 µM; in the assay with RPMI-8226 leukemia, over 100 µM; in the assay on UACC-62 melanoma it was over 57.8 µM; in the assay with U251 CNS, over 73.4 µM; with OVCAR-8 ovarian it was over 82.2 µM; in the assay on DMS 273 small cell lung it was over 100 µM. Moreover, the TGI in the assay with HT29 colon stood at 36.5 µM; with MALME-3M melanoma it was 19.3 µM.

The values above are taken from PubChem BioAssay (NCI).
